In patent US20130030017A1, “QUINOLINE DERIVATIVES AS ANTIBACTERIAL AGENTS” (priority 2005, published 2013):
≈ marks a conversion by molar mass, not a printed value.

Assays:
Assay type in all cases: cell-based
[1] = system: Staphylococcus aureus (ATCC29213); assay: Microtitre plate assay, IC90 determination (STA 29213); details: 90% inhibitory concentration for bacterial growth, 37° C., resazurin fluorescence; for IC90 STA 29213: 24 hours; for IC90: Staphylococcus aureus, ATCC29213, 24 h
Description: (§1) The bacteria used in this study were grown overnight in flasks containing 100 ml Mueller-Hinton Broth (Becton Dickinson—cat. no. 275730) in sterile de-ionized water, with shaking, at 37° C. Stocks (0.5 ml/tube) were stored at −70° C. until use. Bacteria titrations were performed in microtiter plates and colony forming units (CFUs) were determined. In general, an inoculum level of approximately 100 CFUs was used for susceptibility testing.
(§2) Flat-bottom, sterile 96-well plastic microtiter plates were filled with 180 μl of sterile deionized water, supplemented with 0.25% BSA. Subsequently, stock solutions (7.8× final test concentration) of compounds were added in 45 μl volumes in column 2 Serial five-fold dilutions (45 μl in 180 μl) were made directly in the microtiter plates from column 2 to reach column 11. Untreated control samples with (column 1) and without (column 12) inoculum were included in each microtiter plate. Depending on the bacteria type, approximately 10 to 60 CFU per well of bacteria inoculum (100 TCID50), in a volume of 100 μl in 2.8× Mueller-Hinton broth medium, was added to the rows A to H, except column 12. The same volume of broth medium without inoculum was added to column 12 in row A to H. The cultures were incubated at 37° C. for 24 hours under a normal atmosphere (incubator with open air valve and continuous ventilation). At the end of incubation, one day after inoculation, the bacterial growth was quantitated fluorometrically. Therefore resazurin (0.6 mg/ml) was added in a volume of 20 μl to all wells 3 hours after inoculation, and the plates were re-incubated overnight. A change in colour from blue to pink indicated the growth of bacteria. The fluorescence was read in a computer-controlled fluorometer (Cytofluor Biosearch) at an excitation wavelength of 530 nm and an emission wavelength of 590 nm. The % growth inhibition achieved by the compounds was calculated according to standard methods. The IC90 (expressed in μg/ml) was defined as the 90% inhibitory concentration for bacterial growth.

[2] = system: Streptococcus pneumoniae (ATCC6305); assay: Microtitre plate assay, IC90 determination (SPN 6305); details: 90% inhibitory concentration for bacterial growth, 37° C., resazurin fluorescence; for IC90 SPN 6305: 24 hours; for IC90: Streptococcus pneumoniae, ATCC6305, 24 h
Description: as §1, §2

[3] = system: Pseudomonas aeruginosa (ATCC27853); assay: Microtitre plate assay, IC90 determination (PAE 27853); details: 90% inhibitory concentration for bacterial growth, 37° C., 24 hours, resazurin fluorescence
Description: as §1, §2

[4] = system: Streptococcus pyogens (ATCC8668); assay: Microtitre plate assay, IC90 determination (SPY 8668); details: 90% inhibitory concentration for bacterial growth, 37° C., 24 hours, resazurin fluorescence
Description: as §1, §2

[5] = system: Enterococcus faecalis (ATCC29212); assay: Microtitre plate assay, IC90 determination (EFA 29212); details: 90% inhibitory concentration for bacterial growth, 37° C., 24 hours, resazurin fluorescence
Description: as §1, §2

| Compound | IC90 STA 29213 [1] [µg/mL] | IC90 SPN 6305 [2] [µg/mL] | IC90 PAE 27853 [3] [µg/mL] | IC90 SPY 8668 [4] [µg/mL] | IC90 EFA 29212 [5] [µg/mL] | IC90 [2] [µg/mL] | IC90 [1] [µg/mL] |
| --- | --- | --- | --- | --- | --- | --- | --- |
| COc1nc2ccccc2cc1C(c1ccccc1)C(O)(CCc1ccccc1)CCN(C)C (racemic) [Compound 13] | 36.1 (≈ 79.4 µM) | 4.1 (≈ 9.02 µM) | – | – | – | – | – |
| COc1nc2cc(C)c(Br)cc2cc1C(c1ccccc1)C(O)(CCc1ccccc1)CCN(C)C (racemic) [Compound 16] | 19.4 (≈ 35.4 µM) | 2.2 (≈ 4.02 µM) | 2.2 (≈ 4.02 µM) | 2.2 (≈ 4.02 µM) | 10.9 (≈ 19.9 µM) | – | – |
| COc1nc2ccc(Br)cc2cc1C(c1ccccc1)C(O)(CCc1cccc(OC(F)(F)F)c1)CCN(C)C (racemic) [Compound 45] | 2.5 (≈ 4.05 µM) | 0.4 (≈ 0.648 µM) | 0.7 (≈ 1.13 µM) | 2.0 (≈ 3.24 µM) | 2.2 (≈ 3.56 µM) | – | – |
| COc1nc2ccc(Br)cc2cc1C(c1ccccc1)C(O)(CCc1ccc(C(F)(F)F)cc1)CCN(C)C (racemic) [Compound 46] | 1.9 (≈ 3.16 µM) | 0.5 (≈ 0.831 µM) | 1.9 (≈ 3.16 µM) | 1.9 (≈ 3.16 µM) | 1.9 (≈ 3.16 µM) | – | – |
| COc1nc2ccc(Br)cc2cc1C(c1ccccc1)C(O)(CCc1cccc(F)c1)CCN(C)C (racemic) [Compound 47] | 43.8 (≈ 79.4 µM) | 8.7 (≈ 15.8 µM) | – | – | – | – | – |
| COc1nc2ccc(Br)cc2cc1C(c1ccccc1)C(O)(CCc1cccc(F)c1)CCN(C)C (racemic) [Compound 48] | 1.7 (≈ 3.08 µM) | 2.2 (≈ 3.99 µM) | 43.8 (≈ 79.4 µM) | 43.8 (≈ 79.4 µM) | 43.8 (≈ 79.4 µM) | – | – |
| COc1nc2ccc(Br)cc2cc1C(c1ccccc1)C(O)(CCc1ccc(F)cc1)CCN(C)C (racemic) [Compound 49] | 11.0 (≈ 19.9 µM) | 2.2 (≈ 3.99 µM) | 43.8 (≈ 79.4 µM) | 43.8 (≈ 79.4 µM) | 43.8 (≈ 79.4 µM) | – | – |
| COc1nc2ccc(Br)cc2cc1C(c1ccccc1)C(O)(CCc1ccc(C)cc1)CCN(C)C (racemic) [Compound 52] | 6.9 (≈ 12.6 µM) | 1.4 (≈ 2.56 µM) | 1.7 (≈ 3.1 µM) | 1.7 (≈ 3.1 µM) | 1.7 (≈ 3.1 µM) | – | – |
| COc1nc2ccc(Br)cc2cc1C(c1ccccc1)C(O)(CCc1ccccc1Cl)CCN(C)C (racemic) [Compound 54] | 10.1 (≈ 17.8 µM) | 2.3 (≈ 4.05 µM) | 2.0 (≈ 3.52 µM) | 2.0 (≈ 3.52 µM) | 4.5 (≈ 7.92 µM) | – | – |
| COc1nc2ccc(Br)cc2cc1C(c1ccccc1)C(O)(CCc1ccc(Cl)cc1)CCN(C)C (racemic) [Compound 55] | 1.8 (≈ 3.17 µM) | 0.3 (≈ 0.528 µM) | – | – | – | – | – |
| COc1nc2ccc(Br)cc2cc1C(c1ccccc1)C(O)(CCc1ccc(Cl)cc1)CCN(C)C (racemic) [Compound 56] | 9.0 (≈ 15.8 µM) | 5.7 (≈ 10 µM) | – | – | – | – | – |
| COc1nc2ccc(Br)cc2cc1C(c1ccccc1)C(O)(CCc1ccc(Cl)c(Cl)c1)CCN(C)C (racemic) [Compound 57] | 6.0 (≈ 9.96 µM) | 0.5 (≈ 0.83 µM) | – | – | – | – | – |
| COc1nc2ccc(-c3ccccc3)cc2cc1C(c1ccccc1)C(O)(CCc1ccccc1)CCN(C)C (racemic) [Compound 59] | 42.2 (≈ 79.5 µM) | 10.6 (≈ 20 µM) | – | – | – | – | – |
| COc1nc2ccc(-c3ccccc3)cc2cc1C(c1ccccc1)C(O)(CCc1ccccc1)CCN(C)C (racemic) [Compound 60] | 53.1 (≈ 100 µM) | 10.6 (≈ 20 µM) | – | – | – | – | – |
| COc1nc2ccc(-c3cccnc3)cc2cc1C(c1ccccc1)C(O)(CCc1ccccc1)CCN(C)C (racemic) [Compound 61] | – | 7.5 (≈ 14.1 µM) | – | – | – | – | – |
| COc1nc2ccc(-c3ccco3)cc2cc1C(c1ccccc1)C(O)(CCc1ccccc1)CCN(C)C (racemic) [Compound 62] | 8.3 (≈ 15.9 µM) | 10.4 (≈ 20 µM) | – | – | – | – | – |
| COc1nc2ccc(-c3cccs3)cc2cc1C(c1ccccc1)C(O)(CCc1ccccc1)CCN(C)C (racemic) [Compound 64] | 42.6 (≈ 79.4 µM) | 10.7 (≈ 19.9 µM) | – | – | – | – | – |

| Compound | IC90 STA 29213 [1] [µg/mL] | IC90 SPN 6305 [2] [µg/mL] | IC90 PAE 27853 [3] [µg/mL] | IC90 SPY 8668 [4] [µg/mL] | IC90 EFA 29212 [5] [µg/mL] | IC90 [2] [µg/mL] | IC90 [1] [µg/mL] |
| --- | --- | --- | --- | --- | --- | --- | --- |
| COc1ccc2nc(OC)c(C(c3ccccc3)C(O)(CCc3ccccc3)CCN(C)C)cc2c1 (stereo not shown) [Compound 4] | 10.9 (≈ 22.5 µM) | 9.7 (≈ 20 µM) | – | – | – | – | – |
| COc1nc2ccc(Br)cc2cc1C(c1ccccc1)C(O)(CCc1ccccc1)CCN(C)C (stereo not shown) [Compound 17] | 8.5 (≈ 15.9 µM) | 4.8 (≈ 9 µM) | – | – | – | – | – |
| COc1nc2ccc(Br)cc2cc1C(c1ccccc1)C(O)(CCc1ccc(C(C)C)cc1)CCN(C)C (stereo not shown) [Compound 23] | 16.2 (≈ 28.1 µM) | 0.3 (≈ 0.521 µM) | – | – | – | – | – |
| COc1nc2ccc(Br)cc2cc1C(c1ccccc1)C(O)(CCc1ccc(C(C)C)cc1)CCN(C)C (stereo not shown) [Compound 24] | 2.6 (≈ 4.52 µM) | – | – | – | – | 0.3 (≈ 0.521 µM) | – |
| COc1nc2ccc(Br)cc2cc1C(c1ccccc1)C(O)(CCc1ccc(F)cc1)CCN(C)C (stereo not shown) [Compound 25] | 7.8 (≈ 14.1 µM) | 1.7 (≈ 3.08 µM) | – | – | – | – | – |
| COc1nc2ccc(Br)cc2cc1C(c1ccccc1)C(O)(CCc1ccc(F)cc1)CCN(C)C (stereo not shown) [Compound 27] | 1.7 (≈ 3.08 µM) | 2.0 (≈ 3.63 µM) | – | – | – | – | – |
| CSc1nc2ccc(C)cc2cc1C(c1ccccc1)C(O)(CCc1ccccc1)CCN(C)C (stereo not shown) [Compound 30] | 7.7 (≈ 15.9 µM) | 1.9 (≈ 3.92 µM) | – | – | – | – | – |
| CNCCC(O)(CCc1ccc(F)cc1)C(c1ccccc1)c1cc2ccccc2nc1OC (stereo not shown) [Compound 38] | 1.5 (≈ 3.27 µM) | 0.3 (≈ 0.654 µM) | – | – | – | – | – |
| CNCCC(O)(CCc1ccc(F)cc1)C(c1ccccc1)c1cc2cc(Br)ccc2nc1OC (stereo not shown) [Compound 40] | 1.5 (≈ 2.79 µM) | 0.3 (≈ 0.558 µM) | – | – | – | – | – |
| COc1nc2ccc(CO)cc2cc1C(c1ccccc1)C(O)(CCc1ccccc1)CCN(C)C (stereo not shown) [Compound 58] | – | – | – | – | – | 8.6 (≈ 17.7 µM) | 8.6 (≈ 17.7 µM) |
| COc1nc2ccc(Br)cc2cc1C(c1ccc(Cl)cc1)C(O)(CCc1ccc(Cl)cc1)CCN(C)C (stereo not shown) [Compound 75] | 3.0 (≈ 4.98 µM) | 3.4 (≈ 5.64 µM) | – | – | – | – | – |
| COc1nc2ccc(Br)cc2cc1C(c1ccc(Cl)cc1)C(O)(CCc1ccc(Cl)cc1)CCN(C)C (stereo not shown) [Compound 76] | – | 0.4 (≈ 0.664 µM) | – | – | – | – | 2.1 (≈ 3.49 µM) |
| COc1ccc(C(c2cc3cc(Br)ccc3nc2OC)C(O)(CCc2ccc(F)cc2)CCN(C)C)cc1 (stereo not shown) [Compound 85] | 4.1 (≈ 7.05 µM) | 2.1 (≈ 3.61 µM) | – | – | – | – | – |
| COc1nc2ccc(Br)cc2cc1C(c1ccc(Cl)cc1)C(O)(CCc1ccc(C)cc1)CCN(C)C (stereo not shown) [Compound 86] | 41.2 (≈ 70.8 µM) | – | – | – | – | 2.1 (≈ 3.61 µM) | – |
| COc1nc2ccc(Br)cc2cc1C(c1ccc(Cl)cc1)C(O)(CCc1ccc(C(F)(F)F)cc1)CCN(C)C (stereo not shown) [Compound 89] | – | – | – | – | – | 2.3 (≈ 3.62 µM) | 22.6 (≈ 35.5 µM) |
| COc1nc2ccc(Br)cc2cc1C(c1ccc(Cl)cc1)C(O)(CCc1cccc(OC(F)(F)F)c1)CCN(C)C (stereo not shown) [Compound 90] | 16.4 (≈ 25.2 µM) | 2.6 (≈ 3.99 µM) | – | – | – | – | – |
| COc1nc2ccc(Br)cc2cc1C(c1ccc(Cl)cc1)C(O)(CCc1cccc(OC(F)(F)F)c1)CCN(C)C (stereo not shown) [Compound 91] | – | 0.3 (≈ 0.46 µM) | – | – | – | – | 32.7 (≈ 50.2 µM) |
